# Values quoted from earlier work in article PMC3945118 (Journal of molecular neuroscience : MN, 2013).
# System: rotarod performance
# Conditions: test not specified; no reference given
smiles,measurement,value
CCCC(CCC)C(=O)O [valproic acid],Therapeutic Index (TI) of known anticonvulsant,~1
